Assay results published in patent US20230159910A1, “DIMETHYLMONOTHIOARSINIC ACID-INDUCED MALIGNANTLY TRANSFORMED CELL LINE OF HUMAN KERATINOCYTES AND USE THEREOF” (SOOCHOW UNIVERSITY, priority 2021, published 2023).

Key:
Type in all cases: cell-based, human
HaCaT cells [1] = test: Cell survival of HaCaT cells by CCK-8 kit (determination of exposure dose); details: HaCaT cells treated 24 h with 0-2 μM, FIG. 1
Experimental: Determination of appropriate exposure dose: After the HaCaT cells were treated with various concentrations (0-2 μM) of DMMTA^v for 24 h, and the cell survival was detected by the CCK-8 kit. The chronic exposure dose of DMMTA^v is determined to be 1.0 μM.

HaCaT cells [2] = test: MMP-9 secretion after persistent exposure of sub-cultured HaCaT cells; details: persistent exposure to 1.0 μM; 21st, 28th and 35th passages; P<0.05; FIG. 2
Experimental: (§1) Two dishes of normal HaCaT cells (cell passage 0) were prepared. One dish of cells was persistently and chronically exposed to and incubated with Dulbecco's modified Eagle's medium (DMEM) with high glucose with 1.0 μM DMMTAv (containing 100 μg/ml streptomycin, 100 U/ml penicillin and 10% fetal bovine serum), and the medium was refreshed every 24 h. When the cells were grown to a confluency reaching 80%, the cells were sub-cultured and expanded up to the 35th passage. The other dish of cells was persistently and chronically exposed to and normally incubated with Dulbecco's modified Eagle's medium (DMEM) with high glucose (containing 100 μg/ml streptomycin, 100 U/ml penicillin and 10% fetal bovine serum), and the medium was refreshed every 24 h. When the cells were grown to a confluency reaching 80%, the cells were normally sub-cultured and expanded up to the 35th passage and used as the passage control group. One monitoring point is set every 7 passages to detect the cell doubling time of the 0th, 1st, 7th, 14th, 21st, 28th, 35th passages in the exposure group and the passage control group.
(§2) By detecting the changes in the matrix metalloproteinase-9 (MMP-9), the cell doubling time, the cell migration ability and cell anchoring independent growth, whether the cell undergoes malignant transformation is determined. […]

HaCaT cells [3] = test: Cell doubling time after persistent exposure of sub-cultured HaCaT cells; details: persistent exposure to 1.0 μM; 28th, 35th passage; vs passage control, P<0.05; FIG. 3
Experimental: as §1, §2

HaCaT cells [4] = test: Cell migration ability by scratch test; details: persistent exposure to 1.0 μM, 35th passage, vs passage control, P<0.05, FIG. 4
Experimental: as §1, §2

HaCaT cells [5] = test: Cell anchoring independent growth by soft agar colony forming test; details: persistent exposure to 1.0 μM, 35th passage, FIG. 5
Experimental: as §1, §2

HaCaT cells [6] = test: Malignant transformation of HaCaT cells by long-term exposure; details: long-term exposure to 1.0 μM, subculture to 35th passage
Experimental: as §1, §2

`C[As](C)(O)=S` [DMMTA^v, dimethylmonothioarsinic acid] was tested, and the “dose with the highest cell survival rate (chronic exposure dose)” value (HaCaT cells [1]) was 1.0 µM, the “secretion of MMP-9 compared with the passage control group” value (HaCaT cells [2]) was “significantly increased” and the cell doubling time (HaCaT cells [3]) was “significantly reduced”. For the same compound, the cell migration ability (HaCaT cells [4]) was “significantly enhanced”, the “colony formation in soft agar” value (HaCaT cells [5]) was “can form obvious colonies in soft agar” and the “colony formation rate compared with the passage control group cells” value (HaCaT cells [5]; soft agar, P<0.05) was “significantly higher”. For the same compound, the “induction of malignant transformation of HaCaT cells” value (HaCaT cells [6]) was “can induce HaCaT cells to undergo malignant transformation”.
